# Results published in article PMC6201879, “N-substituted phenylbenzamides of the niclosamide chemotype attenuate obesity related changes in high fat diet fed mice” (PLoS ONE, 2018).
# Values joined by “and” are separate entries in the source; they are usually repeats but may differ in a detail not shown here. Equal entries are not always repeated. “Also recorded” adds a separate entry of the source.
# Key:
# [1] = system: Salmonella typhimurium TA98; assay: Ames assay, strain TA98; conditions: Positive Control chemical; concentration not given; without S9
# PH5CH8 liver cells = assay: High-throughput hepatic de novo lipogenesis (DNL) assay, high content imaging of steatotic phenotype; format: cell-based, human; conditions: for Active/Inactive / IC50: S1 Table, SAR for N-Substituted Phenylbenzamides; for IC50: read-out: IC50
# [2] = system: HEK293 cells stably transduced with the human OCT3 transporter; assay: Cellular oxygen consumption rate (OCR), MitoXpress Xtra; format: cell-based; conditions: HEK293 cells expressing human OCT3; compared to DMSO control; 2 hours
# Method: Oxygen consumption rate experiments were performed by ZenBio, Inc (RTP, NC). HEK293 cells stably transduced with the human OCT3 transporter were plated in black-walled microclear plates (Greiner-BioOne) at 60,000 cells per well in growth medium. Cells were incubated overnight to allow attachment before growth medium was removed and replaced with 150μL of assay medium containing compound dilutions. Four concentrations of each compound were prepared and transferred to the empty wells. Control wells contained assay medium only or assay medium containing […] (FCCP) at 1μM. Ten μL of MitoXpress Xtra reagent was added to each test well and 100μL of pre-warmed mineral oil was overlaid in each well to create a seal. The plates were immediately read on a FLUOstar Omega (BMG) using dual read Time Resolved Fluorescence (TR-F) for 2 hours, with measurements taken every 2 minutes using 340nm and 650nm as excitation and emission wavelengths respectively. For lifetime analysis, two measurements per well were taken: 1) delay of 30μs, with a window of 30μs; and 2) delay of 70μs with a window of 30μs. Background TRF values were subtracted from all readings. A ratiometric analysis was performed to determine changes in the Lifetime fluorescence signal: Lifetime (μs)[T] = (D2-D1)/ln(W1/W2), where D is delay; W is fluorescence window value at each time point. Lifetime slopes were calculated using each Lifetime measurement over time. Data are presented as mean ± standard error (SE). The differences between the control (DMSO) and compound treated wells were analyzed using the Student’s t-test. A value of p≤0.05 was considered statistically significant. […]
# [3] = system: phospho-AMPK Thr-172 (p-AMPK); assay: Western blot of phospho-AMPK Thr-172 in HEK293T cells; format: cell-based, human; conditions: 1 and 10μM, negatives re-screened at 5 and 20 μM, 3 hours
# Method: AMPK is a metabolic sensor that maintains cellular energy supply. As validation of these changes in lipid metabolism and cellular respiration we evaluated phospho-AMPK Thr-172 (p-AMPK) levels by Western blot in HEK293 cells treated with the phenylbenzamide derivatives. Compounds were screened at 1 and 10μM using the known uncouplers niclosamide and FCCP as positive controls (Fig 4A). […] We concluded that compounds that had little effect on oxygen consumption rates also had little effect on phosphorylation of AMPK.
# [4] = system: Salmonella typhimurium TA1537; conditions: Positive Control chemical; concentration not given; without S9
# [5] = system: Salmonella typhimurium TA1535; conditions: Positive Control chemical; concentration not given; without S9
# [6] = system: Salmonella typhimurium TA100; conditions: Positive Control chemical; concentration not given; without S9
structure (smiles),measurement,setting,value
"O=[N+]([O-])c1ccc2c(c1)Cc1ccccc1-2 [Compound 2-NF, 2-nitrofluorene, reference compound]",Mean Revertant Colony Counts TA98 S9-,[1],210.0 and 258.7
"COC(=O)c1ccc(NC(=O)c2cc(Cl)ccc2O)c(Cl)c1 [Compound 500189, Methyl 3-chloro-4-[(5-chloro-2-hydroxybenzene)amido]benzoate]",Active/Inactive,PH5CH8 liver cells,Inactive
"COC(=O)c1ccc(NC(=O)c2cc(C)ccc2O)c(Cl)c1 [Compound 500828, Methyl 3-chloro-4-[(2-hydroxy-5-methylbenzene)amido]benzoate]",Active/Inactive,PH5CH8 liver cells,Active
same,IC50,PH5CH8 liver cells,1.68 µM
"COC(=O)c1ccc(NC(=O)c2cc(C(F)(F)F)ccc2O)c(Cl)c1 [Compound 500844, Methyl 3-chloro-4-{[2-hydroxy-5-(trifluoromethyl)benzene]amido}benzoate]",Active/Inactive,PH5CH8 liver cells,Active
same,IC50,PH5CH8 liver cells,0.07 µM
"COc1ccc(O)c(C(=O)Nc2ccc(C(=O)O)cc2C)c1 [Compound 600657, 4-(2-Hydroxy-5-methoxybenzamido)-3-methylbenzoic Acid]",change in respiration / oxygen consumption rate (OCR),[2],no change in respiration; also recorded: did not appear to stimulate phosphorylation of AMPK or increase oxygen consumption rate
same,Active/Inactive,PH5CH8 liver cells,Active
same,phosphorylation of AMPK (p-AMPK Thr-172) by Western blot,[3],no detectable changes in pAMPK levels
"N#CC(C#N)=NNc1ccc(OC(F)(F)F)cc1 [FCCP, carbonyl cyanide-p-trifluoromethoxyphenylhydrazone, reference compound]",change in respiration / oxygen consumption rate (OCR),[2],increased OCR
"COc1ccc2nc3cc(Cl)ccc3c(NCCCNCCCl)c2c1 [ICR-191, reference compound]",Mean Revertant Colony Counts TA-1537 S9-,[4],72.3 and 73.0
"[N-]=[N+]=[N-].[Na+] [SA, Sodium Azide, reference compound]",Mean Revertant Colony Counts TA-1535 S9-,[5],103.3
same,Mean Revertant Colony Counts TA-100 S9-,[6],133.7 and 120.0
"CCC/C=C/C/C=C/C=C/C=N/NN=O [Triacsin C, reference compound]",reduced steatosis (steatotic phenotype in DNL assay),"PH5CH8 liver cells; PH5CH8, assay validation",92 ± 19%
